Assay results published in patent US20250326708A1, “LONG-ACTING SPLEEN-TARGETING CATIONIC LIPID COMPOUND COMPRISING BENZENE RING STRUCTURE, COMPOSITION COMPRISING SAME, AND USE THEREOF” (Beijing Youcarekechuang Pharmaceutical Technology Co., Ltd., priority 2024, published 2025).
“And” between values parts separate entries of the source, which are not always exact repeats. Equal values may be shown once.

Assays:
[1] = Particle size and polydispersity index (PDI) of lipid nanoparticles, dynamic light scattering; format: physicochemical; details: LNP preparation with the named cationic lipid; 90° scattering angle, 25° C
Text: (§1) The cationic lipids listed in Table 2 were each mixed with DSPC (AVT (Shanghai) Pharmaceutical Technology Co., Ltd.), cholesterol (AVT (Shanghai) Pharmaceutical Technology Co., Ltd.), and DMG-PEG2000 in a molar ratio of 49:10:39.5:1.5 and dissolved in ethanol to prepare ethanol lipid solutions. Using the ethanol injection method, the ethanol lipid solutions were quickly added to a citrate buffer (pH between 4 and 5), and vortexed for 30 seconds for later use. eGFP-mRNA (purchased from Shanghai BioHub Biotechnology Co., Ltd.), Fluc-mRNA (purchased from Shanghai BioHub Biotechnology Co., Ltd.), or Cy5 fluorescently labeled Leqvio (purchased from Sangon Biotech (Shanghai) Co., Ltd.) was diluted in a citrate buffer (pH between 4 and 5) to obtain an mRNA aqueous solution. A certain volume of the lipid solution and the mRNA aqueous solution were mixed to prepare liposomes at a total lipid-to-mRNA weight ratio of 15:1. The mixtures were sonicated at 25° C. for 15 minutes (ultrasonic frequency: 40 kHz, ultrasonic power: 800 W). The resulting liposomes were diluted 10-fold with PBS, followed by ultrafiltration using a 300 kDa ultrafiltration tube to remove ethanol. After adjusting the volume with PBS, LNP preparations encapsulating eGFP-mRNA or Fluc-mRNA were obtained, using cationic lipids, DSPC, cholesterol, and DMG-PEG2000 at a molar ratio of 49:10:39.5:1.5.
The particle size and polydispersity index (PDI) were measured using dynamic light scattering with a Malvern laser diffraction particle size analyzer.
10 μL of liposome solution was diluted to 1 mL with RNase-free deionized water and added to the sample cell. Each sample was measured three times. The measurement conditions were as follows: 90° scattering angle, 25° C.

293T cells [2] = test: Fluorescence detection of Fluc-mRNA (transfection efficiency) of LNP preparations; format: cell-based; details: Fluc-mRNA LNP
Procedure: (§2) Cell recovery and passage: 293T cells were recovered and cultured in culture dishes. The cells were passaged until the required number of cells was obtained.
(§3) Seeding plates: The cells in culture dishes were digested and counted, then seeded in a 96-well plate at 10,000 cells per well and seeded in a 12-well plate at 150,000 cells per well. The cells were cultured overnight until cell adhesion.
as §1
(§4) Cell recovery and passage: The method was the same as described in Example 3.
(§5) Seeding plates: The method was the same as described in Example 3.
LNP preparations containing 0.3 μg of Fluc-mRNA (with the vector components of the LNP preparations of cationic lipids, DSPC, cholesterol, and DMG-PEG2000 in a molar ratio of 49:10:39.5:1.5, where the cationic lipids are those listed in Table 1) were added to the cell culture medium in a 96-well plate. After 24 hours of continued culture, the corresponding reagents were added according to the instructions in the Gaussia Luciferase Assay Kit. Fluorescence intensity in each well was detected using the IVIS fluorescence detection system. The transfection efficiency of LNP preparations prepared with a series of cationic lipid compounds designed in the present disclosure, as well as cationic lipids from the prior art, including SM-102, HHMA, MC3, compound 7, and I-1, is shown in Table 4.

293T cells [3] = test: Cell viability assay (CCK-8) with LNP preparations of Fluc-mRNA; format: cell-based
Procedure: as §2, §3, §1, §4, §5
LNP preparations containing 1.5 μg of Fluc-mRNA (with the vector components of the LNP preparations of cationic lipids, DSPC, cholesterol, and DMG-PEG2000 in a molar ratio of 49:10:39.5:1.5, where the cationic lipids are those listed in Table 1) were added to the cell culture medium in a 96-well plate. After 24 hours of continued culture, 10 μL of CCK-8 solution was added to each well, and the culture plate was incubated in an incubator for 1 hour.

female BALB/C mice [4] = test: Expression of delivered mRNA in mice in vivo (IVIS in vivo imaging); details: 10 μg Fluc-mRNA via tail vein
Procedure: LNP preparations containing 10 μg of Fluc-mRNA were injected via the tail vein into female BALB/C mice (4 to 6 weeks old, weighing 17 to 19 g). At specified time points after administration (6 h, 24 h, 48 h, and 7 d), the mice were intraperitoneally injected with fluorescent imaging substrates and allowed to move freely for 5 minutes. The average radiation intensity (corresponding to fluorescence intensity) of proteins expressed by the mRNA delivered by the LNP preparations in the mice in vivo was then detected using the IVIS Spectrum small-animal in vivo imaging system.

female BALB/C mice [5] = test: Expression of delivered mRNA in different organs of mice (organ imaging); format: in vivo
Procedure: LNP preparations containing 5 μg of Fluc-mRNA were subcutaneously injected into female BALB/C mice (4 to 6 weeks old, weighing 17 to 19 g). At specified time points after administration (6 h), the mice were intraperitoneally injected with fluorescent imaging substrates and allowed to move freely for 5 minutes. The average radiation intensity (corresponding to fluorescence intensity) of proteins expressed by the mRNA delivered by the LNP preparations in the mice in vivo was then detected using the IVIS Spectrum small-animal in vivo imaging system. After sampling, the mice were killed by cervical dislocation and dissected, and the internal organs: heart, liver, spleen, lung, kidney, and lymph of mice were accurately isolated. The average radiation intensity (corresponding to fluorescence intensity) of proteins expressed by the mRNA delivered by the LNP preparations in various organs of mice was then detected using the IVIS Spectrum small-animal in vivo imaging system.

[6] = 6 hours after 5 μg Fluc-mRNA subcutaneously

CCCCCCCCCCC(CCCCCCCC)COC(=O)CCCCCNC(CO)(CO)CCc1ccc(CCCCCCCC)cc1 (centres unmarked) [YK-912, 2-octyldodecyl 6-((1-hydroxy-2-(hydroxymethyl)-4-(4-octylphenyl)butan-2-yl)amino) hexanoate]
PDI [1]: 9.5% | Particle size [1]: 123 nm | Cellular transfection efficiency, times that of HHMA (293T cells [2]; vs HHMA): 5.65 times | Cellular transfection efficiency, times that of I-1 (293T cells [2]; vs I-1): 28.16 times | Cellular transfection efficiency, times that of Lipofectamine 3000 (293T cells [2]; vs Lipofectamine 3000): 6.77 times | Cellular transfection efficiency, times that of MC3 (293T cells [2]; vs MC3): 60.16 times | Cellular transfection efficiency, times that of SM-102 (293T cells [2]; vs SM-102): 4.00 times | Cellular transfection efficiency, times that of YK-501 (293T cells [2]; vs YK-501): 123.46 times | Cellular transfection efficiency, times that of YK-506 (293T cells [2]; vs YK-506): 8.73 times | Cellular transfection efficiency, times that of YK-901 (293T cells [2]; vs YK-901): 131 times and 131.47 times | Cellular transfection efficiency, times that of YK-902 (293T cells [2]; vs YK-902): 18.35 times | Cellular transfection efficiency, times that of YK-903 (293T cells [2]; vs YK-903): 228 times and 228.30 times | Cellular transfection efficiency, times that of YK-904 (293T cells [2]; vs YK-904): 45.65 times | Cellular transfection efficiency, times that of YK-905 (293T cells [2]; vs YK-905): 78.83 times | Cellular transfection efficiency, times that of YK-911 (293T cells [2]; vs YK-911): 4.39 times | Cellular transfection efficiency, times that of compound 7 (293T cells [2]; vs compound 7): 22.17 times | Cell viability (293T cells [3]; LNP with 1.5 μg Fluc-mRNA, 24 hours, CCK-8): 87% | Cell viability higher than that of YK-901 (293T cells [3]; difference vs YK-901): 29% | Cell viability higher than that of YK-902 (293T cells [3]; difference vs YK-902): 51% | Cell viability higher than that of YK-903 (293T cells [3]; difference vs YK-903): 40% | Cell viability higher than that of YK-904 (293T cells [3]; difference vs YK-904): 35% | Cell viability higher than that of YK-905 (293T cells [3]; difference vs YK-905): 36% | Cell viability higher than that of YK-911 (293T cells [3]; difference vs YK-911): 25% | Average radiation intensity, in vivo imaging (female BALB/C mice [4]; 6 h): 7543664 | Average radiation intensity, in vivo imaging (female BALB/C mice [4]; 24 h): 932533 | Average radiation intensity, in vivo imaging (female BALB/C mice [4]; 48 h): 354363 | Average radiation intensity, in vivo imaging (female BALB/C mice [4]; 7 d): 56756 | Average radiation intensity of mouse organs: Heart (female BALB/C mice [5]; [6]): 0 | Average radiation intensity of mouse organs: Kidney (female BALB/C mice [5]; [6]): 0 | Average radiation intensity of mouse organs: Lung (female BALB/C mice [5]; [6]): 0 | Average radiation intensity of mouse organs: Lymph (female BALB/C mice [5]; [6]): 0 | Average radiation intensity of mouse organs: Spleen (female BALB/C mice [5]; [6]): 175366 | Expression level of mRNA in the spleen, times that of SM-102 (female BALB/C mice [5]; spleen, 6 h, vs SM-102): 6.86 times | Expression level of mRNA in the spleen, times that of YK-501 (female BALB/C mice [5]; spleen, 6 h, vs YK-501): 12.33 times | Expression level of mRNA in the spleen, times that of YK-506 (female BALB/C mice [5]; spleen, 6 h, vs YK-506): 2.46 times
